Test results: US11021481B2, “Substituted isoindolin-1-ones and 2,3-dihydro-1h-pyrrolo[3,4-c]pyridin-1-ones as HPK1 antagonists” (Nimbus Saturn, Inc., priority 2019, dated 2021)
Counter-ions that a name gives are not always drawn.

biological target: HPK1 (Homo sapiens (Human), UniProt Q92918); assay: HPK1 biochemical enzyme assay (microfluidic mobility shift assay); conditions: 1.5 nM HPK1, ATP 1 mM final, 30 min preincubation, 60 min at RT, Caliper EZ Reader; read-out: HPK1 1000UMATP caliper IC50
Sequence (Q92918 whole entry): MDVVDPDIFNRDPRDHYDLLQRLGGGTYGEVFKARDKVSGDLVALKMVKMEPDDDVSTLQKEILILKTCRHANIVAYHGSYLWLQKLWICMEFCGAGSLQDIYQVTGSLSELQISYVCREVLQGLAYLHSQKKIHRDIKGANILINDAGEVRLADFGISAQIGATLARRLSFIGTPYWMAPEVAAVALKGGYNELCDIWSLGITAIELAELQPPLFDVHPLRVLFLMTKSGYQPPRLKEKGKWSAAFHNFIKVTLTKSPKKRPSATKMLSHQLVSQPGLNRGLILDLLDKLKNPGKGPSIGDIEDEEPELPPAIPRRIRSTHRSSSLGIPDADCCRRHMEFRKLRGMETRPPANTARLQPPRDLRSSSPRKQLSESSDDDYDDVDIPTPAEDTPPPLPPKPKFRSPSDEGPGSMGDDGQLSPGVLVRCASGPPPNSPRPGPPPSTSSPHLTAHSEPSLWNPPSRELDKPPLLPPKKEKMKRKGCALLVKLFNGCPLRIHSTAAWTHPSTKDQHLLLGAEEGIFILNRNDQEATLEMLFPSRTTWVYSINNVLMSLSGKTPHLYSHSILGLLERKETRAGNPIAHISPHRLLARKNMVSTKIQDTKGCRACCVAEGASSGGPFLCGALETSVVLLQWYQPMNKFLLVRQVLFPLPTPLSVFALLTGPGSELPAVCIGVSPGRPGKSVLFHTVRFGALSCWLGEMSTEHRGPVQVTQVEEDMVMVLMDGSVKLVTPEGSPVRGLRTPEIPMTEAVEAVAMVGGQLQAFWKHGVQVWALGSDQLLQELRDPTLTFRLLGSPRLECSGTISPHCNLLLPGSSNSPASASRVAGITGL
Summary of the method: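 Mobility shift readout of HPK1 activity after a 60 min RT reaction with 1 mM ATP, 1 μM substrate and 5 mM MgCl2. Enzyme/substrate mix was first exposed to compounds for 30 min, using ten-point curves topping at 3 μM final.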

IC50 [nM] | Compound
< 100 | Cc1ccn2c(-c3ccc(Nc4ccc([C@@H]5CCOC5)c(CN(C)C)n4)c4c3CNC4=O)cnc2c1F [I-704, (S)-7-((6-((dimethylamino)-methyl)-5-(tetrahydrofuran-3-yl)pyridin-2-yl)amino)-4-(8-fluoro-7-methylimidazo [1,2-a]pyridin-3-yl)isoindolin-1-one]
< 100 | O=C1NCc2c(-c3cnc4cc(F)ccn34)ccc(Nc3ccc([C@H]4CCOC4)c(CN4CCC[C@H]4CO)n3)c21 [I-827, 4-(7-fluoroimidazo [1,2-a]pyridin-3-yl)-7-((6-(((S)-2-(hydroxymeth-yl)pyrrolidin-1-yl]methyl)-5-((R)-THF-3-yl)pyridin-2-yl)amino)isoin-dolin-1-one]
< 100 | CN1CC(Oc2nc(Nc3ccc(-c4cnc5cc(F)ccn45)c4c3C(=O)NC4)ccc2[C@H]2CCOC2)C1 [I-815]
< 100 | CN(C)C(C)(C)C1CN(c2ccc(Nc3ccc(-c4cnc5cc(F)ccn45)c4c3C(=O)NC4)nc2)CCO1 (stereo in doubt) [I-590, (R)-7-((5-(2-(2-(dimethylami-no)propan-2-yl)morpho-lino)pyridin-2-yl)amino)-4-(7-fluoroimidazo [1,2-a]pyridin-3-yl)isoindolin-1-one]
< 100 | CN(C)Cc1nc(Nc2cnc(-c3ccnc4c3ccn4C)c3c2C(=O)NC3)ccc1[C@@H]1CCOC1 (stereo in doubt) [I-707]
< 100 | CN1CCN(c2ccc(Nc3cnc(-c4cnc5c(F)cccn45)c4c3C(=O)NC4)nc2)C[C@H]1C(C)(C)O (stereo in doubt) [I-621, (R]-4-(8-fluoroimidazo [1,2-a]pyridin-3-yl)-7-((5-(3-(2-hydroxypropan-2-yl)-4-methylpiperazin-1-yl)pyridin-2-yl)amino)-2.3-dihydro-1H-pyrrolo[3,4-c]pyridin-1-one]
< 100 | O=C1NCc2c(-c3cnc4cc(F)ccn34)ccc(Nc3ccc([C@H]4CCOC4)c(CN4CCC4)n3)c21 [I-756, (R)-7-((6-(azetidin-1-ylmethyl)-5-(tetrahydrofuran-3-yl)pyridin-2-yl)amino)-4-(7-fluoroimidazo [1,2-a]pyridin-3-yl)isoindolin-1-one]
< 100 | CN(Cc1nc(Nc2ccc(-c3cnc4cc(F)ccn34)c3c2C(=O)NC3)ccc1C1CCOC1)CC(F)(F)F (stereo in doubt) [I-765, (R)-4-(7-fluoroimidazo [1,2-a]pyridin-3-yl)-7-((6-((methyl(2,2,2 trifluoroethyl)amino)methyl)-5-(tetrahydrofuran-3-yl)pyridin-2-yl)amino)isoin-dolin-1-one]
< 100 | CN(C)Cc1nc(Nc2ccc(-c3cnc4cc(F)ccn34)c3c2C(=O)NC3)ccc1N1CCOC[C@H](O)C1 (single isomer, unassigned) [I-819]
< 100 | CN(C)Cc1nc(Nc2ccc(-c3cnc4cnccn34)c3c2C(=O)NC3)ccc1[C@H]1CCOC1 [I-713, (R)-7-((6-((dimethylamino)-methyl)-5-(tetrahydrofuran-3-yl)pyridin-2-yl)amino)-4-(imidazo[1,2-a]pyrazin-3-yl)isoindolin-1-one]

The next lines start with the compound.

Compound | IC50 [nM]
COC1CN(Cc2nc(Nc3ccc(-c4cnc5cc(F)ccn45)c4c3C(=O)NC4)ccc2[C@@H]2CCOC2)C1 [I-549, (S)-4-(7-fluoroimidazo [1,2-a]pyridin-3-yl)-7-((6-((3-methoxyaze-tidin-1-yl)methyl)-5-(tetrahydrofuran-3-yl)pyridin-2-yl)amino)isoin-dolin-1-one] | < 100
Cc1cccn2c(-c3ccc(Nc4ccc(N5CCN(C)CC5)cn4)c4c3CNC4=O)cnc12 [I-52, 4-(8-methylimidazo [1,2-a]pyridin-3-yl-)-7-[[5-(4-methylpiperazin-1-yl)-2-pyridyl]amino] isoindolin-1-1-one] | < 100
O=C1NCc2c(-c3cnc4cc(F)ccn34)ccc(Nc3ccc(N4CCC[C@]5(CNCCO5)C4)cn3)c21 [I-508, (S)-7-((5-(1-oxa-4.8-diazaspiro[5.5]undecan-8-yl)pyridin-2-yl)amino)-4-(7-fluoroimidazo [1,2-a]pyridin-3-yl)isoindolin-1-one] | < 100
CC(C)(O)[C@@H]1CN(c2ccc(Nc3cnc(-c4cnc5c(F)cccn45)c4c3C(=O)NC4)nc2)CCO1 [I-483, 4-(8-fluoroimidazo [1,2-a]pyridin-3-yl)-7-[[5-[(2S)-2-(1-hydroxy-1-methyl-ethyl)morpholin-4-yl]-2-pyridyl]amino]-2,3-dihydropyrrolo [3,4-c]pyridin-1-one] | < 100
CNC1CCN(c2cccc(Nc3cnc(-c4ccnc5c4ccn5C)c4c3C(=O)NC4)n2)CC1 [I-228, 7-[[6-[4-(methylamino)-1-piperidyl]-2-pyridyl]amino]-4-(1-methylpyrrolo [2,3-b]pyridin-4-yl)-2,3-dihydropyrrolo [3,4-c]pyridin-1-one] | 100 to 1000
Cn1ccc2c(-c3ccc(Nc4ccc(N5CCC(O)CC5)cn4)c4c3CNC4=O)cnc-2c1 [I-362, 7-((5-(4-hydroxy-piperidin-1-yl)pyridin-2-yl)amino)-4-(6-methyl-6H-pyrrolo[2,3-c]pyridin-3-yl)isoindolin-1-one] | < 100
Cn1ccc2c(-c3ncc(Nc4ccc(N5CCNCC5)cn4)c4c3CNC4=O)ccnc21 [I-258, 4-(1-methyl-1H-pyrrolo[2,3-b]pyridin-4-yl)-7-((5-(piperazin-1-yl)pyridin-2-yl)amino)-2,3-dihydro-1H-pyrrolo[3,4-c]pyridin-1-one] | < 100
CN(C)Cc1nc(Nc2ccc(-c3cnc4cc(F)ccn34)c3c2C(=O)NC3)ccc1O[C@H]1CCOC1 [I-544, 7-[[6-[(dimethylamino)-methyl]-5-[(3S)-tetrahydrofuran-3-yl]oxy-2-pyridyl]amino]-4-(7-fluoroimidazo [1,2-a]pyridin-3-yl)isoindolin-1-one] | < 100
CN(C)Cc1nc(Nc2ccc(-c3cnc4cc(F)ccn34)c3c2C(=O)NC3)ccc1N1CCOC2(CC2)C1 [I-530, 7-[[6-[(dimethylamino)-methyl]-5-(4-oxa-7-azaspiro[2.5]octan-7-yl)-2-pyridyl]amino]-4-(7-fluoroimidazo [1,2-a]pyridin-3-yl)isoindolin-1-one Formic acid salt] | < 100
O=C1NCc2c(-c3cnn4cccnc34)ccc(Nc3ccc(N4CCNCC4)cn3)c21 [I-117, 7-[(5-piperazin-1-yl-2-pyridyl)amino]-4-pyrazolo[1,5-a]pyrimidin-3-yl-isoindolin-1-one] | < 100
COC1CCN(c2ccc(Nc3cnc(-c4cnc5c(F)cccn45)c4c3C(=O)NC4)nc2)CC1 [I-455, 4-(8-fluoroimidazo [1,2-a]pyridin-3-yl)-7-[[5-(4-methoxy-1-piperidyl)-2-pyridyl]amino]-2,3-dihydropyrrolo [3,4-c]pyridin-1-one] | 100 to 1000
CN1C[C@@H](c2ccc(Nc3ccc(-c4cnc5cnccn45)c4c3C(=O)NC4)nc2)CCC1=O [I-325, (R)-4-(imidazo[1,2-a]pyrazin-3-yl)-7-((5-(1-methyl-6-oxopiperidin-3-yl)pyridin-2-yl)amino)isoin-dolin-1-one] | < 100
Cc1ccn2c(-c3ccc(Nc4ccc(N5CCC[C@@H](C(C)(C)O)C5)cn4)c4c3CNC4=O)cnc2n1 [I-233, 7-[[5-[(3R)-3-(1-hydroxy-1-methyl-ethyl)-1-piperidyl)-2-pyridyl)-amino]-4-(7-methylimidazo [1,2-a]pyrimidin-3-yl]isoindolin-1-one] | < 100
Cc1cnn2c(-c3ccc(Nc4ccc([C@H]5CCOC5)c(CN(C)C)n4)c4c3CNC4=O)cnc2c1 [I-537, (R)-7-((6-((dimethylamino)-methyl)-5-(tetrahydrofuran-3-yl)pyridin-2-yl)amino)-4-(7-methylimidazo [1,2-b]pyridazin-3-yl)isoindolin-1-one] | < 100
Cn1cc2c(-c3ccc(Nc4ccc(N5CCC(O)CC5)cn4)c4c3CNC4=O)cnc-2cn1 [I-422, 7-((5-(4-hydroxy-piperidin-1-yl)pyridin-2-yl)amino)-4-(5-methyl-5H-pyrrolo[2,3-d]pyridazin-3-yl)isoindolin-1-one] | 100 to 1000
C[C@@H]1C[C@@H](O)CCN1c1ccc(Nc2ccc(-c3cnc4cnccn34)c3c2C(=O)NC3)nc1 [I-351, 7-((5-((2R,4S)-4-hydroxy-2-methylpiperidin-1-yl)pyridin-2-yl)amino)-4-(imidazo[1,2-a]pyrazin-3-yl)isoindolin-1-one] | < 100
Cc1ccc2ncc(-c3ccc(Nc4ccc(N5CCC(O)CC5)cn4)c4c3CNC4=O)n2c1 [I-134, 7-[[5-(4-hydroxy-1-piperidyl)-2-pyridyl]amino]-4-(6-methylimidazo [1,2-a]pyridin-3-yl)isoindolin-1-one] | < 100
C[C@H](c1ccc(Nc2ccc(-c3cnc4cc(F)ccn34)c3c2C(=O)NC3)nc1)N1CCC(O)CC1 [I-527, (R)-4-(7-fluoroimidazo [1,2-a]pyridin-3-yl)-7-((5-(1-(4-hydroxypiperidin-1-yl)ethyl)pyridin-2-yl)amino)isoin-dolin-1-one] | < 100
O=C1NCc2c(-c3cnc4cc(F)ccn34)ccc(Nc3ccc(CN4CCOCC4)cn3)c21 [I-238, 4-(7-fluoroimidazo [1,2-a]pyridin-3-yl)-7-[[5-(morpholino-methyl)-2-pyripyl]amino] isoindolin-1-one] | < 100
O=C1NCc2c(-c3cnc4ccccn34)ccc(Nc3ccc(N4CCCNCC4)cn3)c21 [I-104, 7-[[5-(l,4-diazepan-1-yl)-2-pyridyl]amino]-4-imidazo[1,2-a]pyridin-3-yl-isoindolin-1-one] | < 100
Cn1ccc2c(-c3ccc(Nc4ccc(C5CCNCC5)cn4)c4c3CNC4=O)ccnc21 [I-96, 4-(1-methylpyrrolo [2,3-b]pyridin-4-yl)-7-[[5-(4-piperidyl)-2-pyridyl]amino] isoindolin-1-one] | < 100
Cc1cnc2[nH]ccc2c1-c1ccc(Nc2ccc(N3CCN(C)CC3)cn2)c2c1CNC2=O [I-78, 7-[[5-(4-methylpiperazin-1-yl)-2-pyridyl]amino]-4-(5-methyl-1H-pyrrolo[2,3-b]pyridin-4-yl)isoindolin-1-one] | 100 to 1000
Cc1ccn2c(-c3ncc(Nc4ccc(N5CCOCC5)cn4)c4c3CNC4=O)cnc2c1 [I-163] | 100 to 1000
